Values joined by “and” are separate entries in the source; they are usually repeats but may differ in a detail not shown here. Equal entries are not always repeated.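 The compound was tested at five concentrations on cells cultured in 96-well plates, with a 48-hour exposure period. GI50: concentration for 50% inhibition of growth. TGI marks complete inhibition of growth.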

The subject of the first assay is HCT-15 colon. Description: growth of human tumour cells (NCI), 48 h.
On to `N#C/C(=C/N1CCN(C(=O)c2ccco2)C1=S)C(=O)c1ccccc1`, for which the GI50 was 5.73 µM and the TGI was over 100 µM.

Consider `O=C(Nc1ccc(CO)cc1)c1coc2ccccc2c1=O`, for which the GI50 is over 100 µM and the TGI is over 100 µM.

In the case of `CC(=O)/C=C/c1ccc(C#Cc2ccccc2)s1`, the GI50 is 15.6 µM and the TGI amounted to 29 µM.

`COC(=O)OCC1OC(N2C(=O)NC(=O)C(Br)C2N=[N+]=[N-])CC1OC(=O)OC` (configuration not stated) gave a TGI of over 100 µM.

Turning to `CC(C)N=c1cc2n(-c3ccc(Cl)cc3)c3ccccc3nc-2cc1Nc1ccc(Cl)cc1`, the GI50 was 0.54 µM and 1.61 µM; the TGI was over 100 µM.

Consider `Cc1cc2c(cc1Cl)SC(=Nc1ccc(Cl)cc1)N(S(=O)(=O)c1ccccc1)S2(=O)=O`, for which the GI50 was 2.77 µM and the TGI came to 13 µM.

The molecule `O=c1[nH]c2cc(Cl)ccc2nc1/C(=N\O)C(O)c1ccc(Cl)cc1Cl` (configuration not stated) yielded a TGI of over 100 µM.

In turn, `Cc1cc(NS(=O)(=O)c2ccc(Nc3c4ccccc4nc4c(C(=O)NCCN(C)C)cccc34)cc2)no1` came in with a TGI of over 100 µM.

Regarding `CN[C@@H](C)[C@H](NC)c1ccccc1`, the TGI was over 100 µM.

The test system of a further assay is K-562 leukemia. Description: growth of human tumour cells (NCI), 48 h.
As for `N#C/C(=C/N1CCN(C(=O)c2ccco2)C1=S)C(=O)c1ccccc1`, the GI50 is 5.51 µM and the TGI was over 100 µM.

Consider `O=C(Nc1ccc(CO)cc1)c1coc2ccccc2c1=O`, for which the GI50 was over 100 µM and the TGI is over 100 µM.

For the molecule `CC(=O)/C=C/c1ccc(C#Cc2ccccc2)s1`, the GI50 was 19.8 µM and the TGI was determined as 56.4 µM.

As to `CC(C)N=c1cc2n(-c3ccc(Cl)cc3)c3ccccc3nc-2cc1Nc1ccc(Cl)cc1`, the GI50 was 2.24 µM and the TGI was over 100 µM.

As to `Cc1cc2c(cc1Cl)SC(=Nc1ccc(Cl)cc1)N(S(=O)(=O)c1ccccc1)S2(=O)=O`, the GI50 is 9.19 µM and the TGI was found to be 58.2 µM.

Consider `O=c1[nH]c2cc(Cl)ccc2nc1/C(=N\O)C(O)c1ccc(Cl)cc1Cl` (configuration not stated), for which the TGI is over 100 µM.

`Cc1cc(NS(=O)(=O)c2ccc(Nc3c4ccccc4nc4c(C(=O)NCCN(C)C)cccc34)cc2)no1` returned a TGI of over 100 µM.

Molecule `CN[C@@H](C)[C@H](NC)c1ccccc1` came in with a TGI of over 100 µM.

The next assay has as its system M14 melanoma. In words: growth of human tumour cells (NCI), 48 h.
Regarding `N#C/C(=C/N1CCN(C(=O)c2ccco2)C1=S)C(=O)c1ccccc1`, the GI50 is 14.9 µM and the TGI worked out at 36.8 µM.

For `O=C(Nc1ccc(CO)cc1)c1coc2ccccc2c1=O`, the GI50 is over 100 µM and the TGI was over 100 µM.

Turning to `CC(=O)/C=C/c1ccc(C#Cc2ccccc2)s1`, the GI50 was 15.7 µM and the TGI was 29.1 µM.

`COC(=O)OCC1OC(N2C(=O)NC(=O)C(Br)C2N=[N+]=[N-])CC1OC(=O)OC` (configuration not stated) displayed a TGI of over 100 µM.

Turning to `CC(C)N=c1cc2n(-c3ccc(Cl)cc3)c3ccccc3nc-2cc1Nc1ccc(Cl)cc1`, the GI50 is 1.01 µM and 2.29 µM; the TGI is 2.31 µM and 5.62 µM.

Regarding `Cc1cc2c(cc1Cl)SC(=Nc1ccc(Cl)cc1)N(S(=O)(=O)c1ccccc1)S2(=O)=O`, the GI50 is 12.6 µM and the TGI was determined as 27.6 µM.

As for `O=c1[nH]c2cc(Cl)ccc2nc1/C(=N\O)C(O)c1ccc(Cl)cc1Cl` (configuration not stated), the TGI is over 100 µM.

For the molecule `Cc1cc(NS(=O)(=O)c2ccc(Nc3c4ccccc4nc4c(C(=O)NCCN(C)C)cccc34)cc2)no1`, the TGI was over 100 µM.

Turning to `Nc1nc(CCl)nc(Nc2ccccc2)n1`, the TGI is 32.8 µM.

On to `CN[C@@H](C)[C@H](NC)c1ccccc1`, for which the TGI was over 100 µM.

For the next assay, the system named is MOLT-4 leukemia. Description: growth of human tumour cells (NCI), 48 h.
On to `N#C/C(=C/N1CCN(C(=O)c2ccco2)C1=S)C(=O)c1ccccc1`, for which the GI50 is 43.7 µM and the TGI was over 100 µM.

With `O=C(Nc1ccc(CO)cc1)c1coc2ccccc2c1=O`, the GI50 was over 100 µM and the TGI was over 100 µM.

With `CC(C)N=c1cc2n(-c3ccc(Cl)cc3)c3ccccc3nc-2cc1Nc1ccc(Cl)cc1`, the GI50 is 2.56 µM and the TGI is over 100 µM.

Regarding `O=c1[nH]c2cc(Cl)ccc2nc1/C(=N\O)C(O)c1ccc(Cl)cc1Cl` (configuration not stated), the TGI was over 100 µM.

On to `Nc1nc(CCl)nc(Nc2ccccc2)n1`, for which the TGI stood at 37.2 µM.

For `CN[C@@H](C)[C@H](NC)c1ccccc1`, the TGI is over 100 µM.

The test system of the next assay is NCI-H226 lung. Description: growth of human tumour cells (NCI), 48 h.
Consider `O=C(Nc1ccc(CO)cc1)c1coc2ccccc2c1=O`, for which the GI50 is over 100 µM and the TGI is over 100 µM.

Turning to `CC(=O)/C=C/c1ccc(C#Cc2ccccc2)s1`, the GI50 was 18.4 µM and the TGI came to 36.4 µM.

Take `COC(=O)OCC1OC(N2C(=O)NC(=O)C(Br)C2N=[N+]=[N-])CC1OC(=O)OC` (configuration not stated): the TGI is over 100 µM.

Regarding `CC(C)N=c1cc2n(-c3ccc(Cl)cc3)c3ccccc3nc-2cc1Nc1ccc(Cl)cc1`, the GI50 was 1.43 µM and the TGI is over 50 µM.

On to `Cc1cc2c(cc1Cl)SC(=Nc1ccc(Cl)cc1)N(S(=O)(=O)c1ccccc1)S2(=O)=O`, for which the GI50 was 11.5 µM and the TGI was 35.4 µM.

`O=c1[nH]c2cc(Cl)ccc2nc1/C(=N\O)C(O)c1ccc(Cl)cc1Cl` (configuration not stated) had a TGI of over 100 µM.

`Cc1cc(NS(=O)(=O)c2ccc(Nc3c4ccccc4nc4c(C(=O)NCCN(C)C)cccc34)cc2)no1` registered a TGI of 2.92 µM.

`Nc1nc(CCl)nc(Nc2ccccc2)n1` came in with a TGI of 43.3 µM.

The molecule `CN[C@@H](C)[C@H](NC)c1ccccc1` gave a TGI of over 100 µM.

Another assay deals with RPMI-8226 leukemia. In words: growth of human tumour cells (NCI), 48 h.
For `N#C/C(=C/N1CCN(C(=O)c2ccco2)C1=S)C(=O)c1ccccc1`, the GI50 is 5.56 µM and the TGI was over 100 µM.

In the case of `O=C(Nc1ccc(CO)cc1)c1coc2ccccc2c1=O`, the GI50 was 84.8 µM and the TGI is over 100 µM.

Take `CC(=O)/C=C/c1ccc(C#Cc2ccccc2)s1`: the GI50 is 20.7 µM and the TGI turned out to be 38 µM.

For `COC(=O)OCC1OC(N2C(=O)NC(=O)C(Br)C2N=[N+]=[N-])CC1OC(=O)OC` (configuration not stated), the TGI was over 100 µM.

Regarding `CC(C)N=c1cc2n(-c3ccc(Cl)cc3)c3ccccc3nc-2cc1Nc1ccc(Cl)cc1`, the GI50 is 0.821 µM and the TGI is 2.62 µM.

Regarding `Cc1cc2c(cc1Cl)SC(=Nc1ccc(Cl)cc1)N(S(=O)(=O)c1ccccc1)S2(=O)=O`, the GI50 was 2.67 µM and the TGI was determined as 14.7 µM.

For `O=c1[nH]c2cc(Cl)ccc2nc1/C(=N\O)C(O)c1ccc(Cl)cc1Cl` (configuration not stated), the TGI was over 100 µM.

In the case of `Nc1nc(CCl)nc(Nc2ccccc2)n1`, the TGI was 19.8 µM.

Molecule `CN[C@@H](C)[C@H](NC)c1ccccc1` had a TGI of over 100 µM.

Another assay concerns SF-539 CNS. In words: growth of human tumour cells (NCI), 48 h.
Consider `N#C/C(=C/N1CCN(C(=O)c2ccco2)C1=S)C(=O)c1ccccc1`, for which the GI50 is 2.21 µM and the TGI came to 5.39 µM.

With `O=C(Nc1ccc(CO)cc1)c1coc2ccccc2c1=O`, the GI50 is over 100 µM and the TGI was over 100 µM.

As for `CC(=O)/C=C/c1ccc(C#Cc2ccccc2)s1`, the GI50 is 17.3 µM and the TGI stood at 31 µM.

Regarding `COC(=O)OCC1OC(N2C(=O)NC(=O)C(Br)C2N=[N+]=[N-])CC1OC(=O)OC` (configuration not stated), the TGI is over 100 µM.

Turning to `CC(C)N=c1cc2n(-c3ccc(Cl)cc3)c3ccccc3nc-2cc1Nc1ccc(Cl)cc1`, the GI50 was over 50 µM and the TGI was over 50 µM.

For `Cc1cc2c(cc1Cl)SC(=Nc1ccc(Cl)cc1)N(S(=O)(=O)c1ccccc1)S2(=O)=O`, the GI50 was 1.03 µM and the TGI turned out to be 3.53 µM.

The molecule `O=c1[nH]c2cc(Cl)ccc2nc1/C(=N\O)C(O)c1ccc(Cl)cc1Cl` (configuration not stated) gave a TGI of over 100 µM.

Molecule `Cc1cc(NS(=O)(=O)c2ccc(Nc3c4ccccc4nc4c(C(=O)NCCN(C)C)cccc34)cc2)no1` yielded a TGI of 15.2 µM.

The molecule `Nc1nc(CCl)nc(Nc2ccccc2)n1` displayed a TGI of 70.7 µM.

Regarding `CN[C@@H](C)[C@H](NC)c1ccccc1`, the TGI was over 100 µM.

In the next assay the test system is SK-MEL-2 melanoma. In words: growth of human tumour cells (NCI), 48 h.
For the molecule `N#C/C(=C/N1CCN(C(=O)c2ccco2)C1=S)C(=O)c1ccccc1`, the GI50 was 3.68 µM and the TGI amounted to 15.8 µM.

`CC(=O)/C=C/c1ccc(C#Cc2ccccc2)s1`: the GI50 is 20.5 µM and the TGI was 35.4 µM.

`Cc1cc2c(cc1Cl)SC(=Nc1ccc(Cl)cc1)N(S(=O)(=O)c1ccccc1)S2(=O)=O`: the GI50 is 11.8 µM and the TGI came out at 27.6 µM.

As for `Nc1nc(CCl)nc(Nc2ccccc2)n1`, the TGI is 44.1 µM.

A further assay concerns UACC-257 melanoma. Description: growth of human tumour cells (NCI), 48 h.
In the case of `O=C(Nc1ccc(CO)cc1)c1coc2ccccc2c1=O`, the GI50 is over 100 µM and the TGI was over 100 µM.

In the case of `CC(=O)/C=C/c1ccc(C#Cc2ccccc2)s1`, the GI50 was 19.1 µM and the TGI is 34.3 µM.

On to `COC(=O)OCC1OC(N2C(=O)NC(=O)C(Br)C2N=[N+]=[N-])CC1OC(=O)OC` (configuration not stated), for which the TGI was over 100 µM.

Take `CC(C)N=c1cc2n(-c3ccc(Cl)cc3)c3ccccc3nc-2cc1Nc1ccc(Cl)cc1`: the GI50 was 2.58 µM and the TGI is over 50 µM.

On to `Cc1cc2c(cc1Cl)SC(=Nc1ccc(Cl)cc1)N(S(=O)(=O)c1ccccc1)S2(=O)=O`, for which the GI50 was 17.4 µM and the TGI was determined as 34.9 µM.

The molecule `O=c1[nH]c2cc(Cl)ccc2nc1/C(=N\O)C(O)c1ccc(Cl)cc1Cl` (configuration not stated) yielded a TGI of over 100 µM.

Consider `Nc1nc(CCl)nc(Nc2ccccc2)n1`, for which the TGI came to 71.9 µM.

With `CN[C@@H](C)[C@H](NC)c1ccccc1`, the TGI was over 100 µM.

Values taken from PubChem BioAssay (NCI).
